Results as given in PubChem BioAssay (NCI).
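A five-concentration, 48-hour dose response in 96-well plates underlies each endpoint, interpolated linearly between surrounding concentrations. GI50: concentration for 50% inhibition of growth. TGI marks complete inhibition of growth.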

Legend:
Test in all cases: DTP human tumour cell line panel, 48 h
786-0 renal = test system: 786-0 renal
A498 renal = test system: A498 renal
A549 NSCLC = test system: A549 NSCLC
ACHN renal = test system: ACHN renal
BT-549 breast = test system: BT-549 breast
CAKI-1 renal = test system: CAKI-1 renal
CCRF-CEM leukemia = test system: CCRF-CEM leukemia
COLO 205 colon = test system: COLO 205 colon
DU-145 prostate = test system: DU-145 prostate
EKVX NSCLC = test system: EKVX NSCLC
HCC-2998 colon = test system: HCC-2998 colon
HCT-116 colon = test system: HCT-116 colon
HCT-15 colon = test system: HCT-15 colon
HL-60(TB) leukemia = test system: HL-60(TB) leukemia
HOP-62 NSCLC = test system: HOP-62 NSCLC
HOP-92 NSCLC = test system: HOP-92 NSCLC
HS 578T breast = test system: HS 578T breast
HT29 colon = test system: HT29 colon
IGROV1 ovarian = test system: IGROV1 ovarian
K-562 leukemia = test system: K-562 leukemia
KM12 colon = test system: KM12 colon
LOX IMVI melanoma = test system: LOX IMVI melanoma
M14 melanoma = test system: M14 melanoma
MALME-3M melanoma = test system: MALME-3M melanoma
MCF7 breast = test system: MCF7 breast
MDA-MB-231 breast = test system: MDA-MB-231 breast
MDA-MB-435 = test system: MDA-MB-435
MDA-MB-468 breast = test system: MDA-MB-468 breast
MOLT-4 leukemia = test system: MOLT-4 leukemia
NCI-H226 lung = test system: NCI-H226 lung
NCI-H23 lung = test system: NCI-H23 lung
NCI-H460 lung = test system: NCI-H460 lung
NCI-H522 lung = test system: NCI-H522 lung
NCI/ADR-RES ovarian = test system: NCI/ADR-RES ovarian
OVCAR-3 ovarian = test system: OVCAR-3 ovarian
OVCAR-4 ovarian = test system: OVCAR-4 ovarian
OVCAR-5 ovarian = test system: OVCAR-5 ovarian
OVCAR-8 ovarian = test system: OVCAR-8 ovarian
PC-3 prostate = test system: PC-3 prostate
RPMI-8226 leukemia = test system: RPMI-8226 leukemia
RXF 393 renal = test system: RXF 393 renal
SF-268 CNS = test system: SF-268 CNS
SF-295 CNS = test system: SF-295 CNS
SF-539 CNS = test system: SF-539 CNS
SK-MEL-2 melanoma = test system: SK-MEL-2 melanoma
SK-MEL-28 melanoma = test system: SK-MEL-28 melanoma
SK-MEL-5 melanoma = test system: SK-MEL-5 melanoma
SK-OV-3 ovarian = test system: SK-OV-3 ovarian
SN12C renal = test system: SN12C renal
SNB-19 CNS = test system: SNB-19 CNS
SR leukemia = test system: SR leukemia
SW-620 colon = test system: SW-620 colon
T-47D breast = test system: T-47D breast
TK-10 renal = test system: TK-10 renal
U251 CNS = test system: U251 CNS
UACC-257 melanoma = test system: UACC-257 melanoma
UACC-62 melanoma = test system: UACC-62 melanoma
UO-31 renal = test system: UO-31 renal

C[C@H]1CN(C(=O)c2ccc3c(NNC(=O)c4ccncn4)nc4cc(F)c(F)cc4n23)CCN1
GI50 (786-0 renal): 0.879 µM
TGI (786-0 renal): 11.4 µM
GI50 (A498 renal): 19.1 µM
TGI (A498 renal): 34.3 µM
GI50 (A549 NSCLC): 0.773 µM
TGI (A549 NSCLC): 15.6 µM
GI50 (ACHN renal): 0.452 µM
TGI (ACHN renal): 12.2 µM
GI50 (BT-549 breast): 4.06 µM
TGI (BT-549 breast): 85.8 µM
GI50 (CAKI-1 renal): 0.566 µM
TGI (CAKI-1 renal): 27.2 µM
GI50 (CCRF-CEM leukemia): 1.25 µM
TGI (CCRF-CEM leukemia): 8.74 µM
GI50 (COLO 205 colon): 2.32 µM
TGI (COLO 205 colon): 15 µM
GI50 (DU-145 prostate): 1.99 µM
TGI (DU-145 prostate): > 100 µM
GI50 (EKVX NSCLC): 0.871 µM
TGI (EKVX NSCLC): 9.24 µM
GI50 (HCC-2998 colon): 2.14 µM
TGI (HCC-2998 colon): 62.5 µM
GI50 (HCT-116 colon): 0.568 µM
TGI (HCT-116 colon): 22.2 µM
GI50 (HCT-15 colon): 0.18 µM
TGI (HCT-15 colon): 20.1 µM
GI50 (HL-60(TB) leukemia): 1.3 µM
TGI (HL-60(TB) leukemia): 6.27 µM
GI50 (HOP-62 NSCLC): 0.938 µM
TGI (HOP-62 NSCLC): > 100 µM
GI50 (HOP-92 NSCLC): 0.246 µM
TGI (HOP-92 NSCLC): 5.56 µM
GI50 (HS 578T breast): 7.64 µM
TGI (HS 578T breast): > 100 µM
GI50 (HT29 colon): 0.495 µM
TGI (HT29 colon): 16 µM
GI50 (IGROV1 ovarian): 3.29 µM
TGI (IGROV1 ovarian): > 100 µM
GI50 (K-562 leukemia): 1.97 µM
TGI (K-562 leukemia): 32.6 µM
GI50 (KM12 colon): 2.29 µM
TGI (KM12 colon): 54 µM
GI50 (LOX IMVI melanoma): 0.88 µM
TGI (LOX IMVI melanoma): 4.44 µM
GI50 (M14 melanoma): 0.711 µM
TGI (M14 melanoma): 4.5 µM
GI50 (MALME-3M melanoma): 2.57 µM
TGI (MALME-3M melanoma): 9.98 µM
GI50 (MCF7 breast): 2.75 µM
TGI (MCF7 breast): 55.8 µM
GI50 (MDA-MB-231 breast): 3.42 µM
TGI (MDA-MB-231 breast): 49.9 µM
GI50 (MDA-MB-435): 4.83 µM
TGI (MDA-MB-435): > 100 µM
GI50 (MDA-MB-468 breast): 1.51 µM
TGI (MDA-MB-468 breast): 4.54 µM
GI50 (MOLT-4 leukemia): 1.98 µM
TGI (MOLT-4 leukemia): 17.2 µM
GI50 (NCI-H226 lung): 1.49 µM
TGI (NCI-H226 lung): 13 µM
GI50 (NCI-H23 lung): 2 µM
TGI (NCI-H23 lung): > 100 µM
GI50 (NCI-H460 lung): 0.492 µM
TGI (NCI-H460 lung): 12.7 µM
GI50 (NCI-H522 lung): 2.18 µM
TGI (NCI-H522 lung): 20.3 µM
GI50 (NCI/ADR-RES ovarian): 1.24 µM
TGI (NCI/ADR-RES ovarian): 6.73 µM
GI50 (OVCAR-3 ovarian): 3.32 µM
TGI (OVCAR-3 ovarian): 81.1 µM
GI50 (OVCAR-4 ovarian): 2.12 µM
TGI (OVCAR-4 ovarian): 40.1 µM
GI50 (OVCAR-5 ovarian): 2.58 µM
TGI (OVCAR-5 ovarian): 44.4 µM
GI50 (OVCAR-8 ovarian): 1.05 µM
TGI (OVCAR-8 ovarian): 14 µM
GI50 (PC-3 prostate): 1.6 µM
TGI (PC-3 prostate): 30.6 µM
GI50 (RPMI-8226 leukemia): 2.71 µM
TGI (RPMI-8226 leukemia): > 100 µM
GI50 (RXF 393 renal): 2.12 µM
TGI (RXF 393 renal): 12.2 µM
GI50 (SF-268 CNS): 2.17 µM
TGI (SF-268 CNS): > 100 µM
GI50 (SF-295 CNS): 0.418 µM
TGI (SF-295 CNS): 19.1 µM
GI50 (SF-539 CNS): 2.61 µM
TGI (SF-539 CNS): 14.5 µM
GI50 (SK-MEL-2 melanoma): 2.73 µM
TGI (SK-MEL-2 melanoma): 20.1 µM
GI50 (SK-MEL-28 melanoma): 2.92 µM
TGI (SK-MEL-28 melanoma): > 100 µM
GI50 (SK-MEL-5 melanoma): 1.55 µM
TGI (SK-MEL-5 melanoma): 11.1 µM
GI50 (SK-OV-3 ovarian): 1.2 µM
TGI (SK-OV-3 ovarian): 17.2 µM
GI50 (SN12C renal): 2.87 µM
TGI (SN12C renal): > 100 µM
GI50 (SNB-19 CNS): 3.4 µM
TGI (SNB-19 CNS): > 100 µM
GI50 (SR leukemia): 0.444 µM
TGI (SR leukemia): 11.3 µM
GI50 (SW-620 colon): 1.98 µM
TGI (SW-620 colon): > 100 µM
GI50 (T-47D breast): 3.43 µM
TGI (T-47D breast): > 100 µM
GI50 (TK-10 renal): 0.373 µM
TGI (TK-10 renal): 16.8 µM
GI50 (U251 CNS): 0.892 µM
TGI (U251 CNS): > 100 µM
GI50 (UACC-257 melanoma): 3.34 µM
TGI (UACC-257 melanoma): 20.3 µM
GI50 (UACC-62 melanoma): 1.53 µM
TGI (UACC-62 melanoma): 4.56 µM
GI50 (UO-31 renal): 0.284 µM
TGI (UO-31 renal): 5.08 µM
